In general, EC50 refers to the concentration needed to bring the measured effect to its halfway point. A low value points to greater potency.

The text below walks through data of patent US12351574B2, “Selective ligands for modulation of GIRK channels” (Northeastern University, priority 2018, dated 2025).

The test has as its target T1, GIRK1/4(V-I) (Homo sapiens, UniProt P48544+P48549, V92I).
T1 construct: expressed in transfected cells; host or cells: Xenopus laevis oocytes (cRNA injection)
T1 sequence (P48549 1-501): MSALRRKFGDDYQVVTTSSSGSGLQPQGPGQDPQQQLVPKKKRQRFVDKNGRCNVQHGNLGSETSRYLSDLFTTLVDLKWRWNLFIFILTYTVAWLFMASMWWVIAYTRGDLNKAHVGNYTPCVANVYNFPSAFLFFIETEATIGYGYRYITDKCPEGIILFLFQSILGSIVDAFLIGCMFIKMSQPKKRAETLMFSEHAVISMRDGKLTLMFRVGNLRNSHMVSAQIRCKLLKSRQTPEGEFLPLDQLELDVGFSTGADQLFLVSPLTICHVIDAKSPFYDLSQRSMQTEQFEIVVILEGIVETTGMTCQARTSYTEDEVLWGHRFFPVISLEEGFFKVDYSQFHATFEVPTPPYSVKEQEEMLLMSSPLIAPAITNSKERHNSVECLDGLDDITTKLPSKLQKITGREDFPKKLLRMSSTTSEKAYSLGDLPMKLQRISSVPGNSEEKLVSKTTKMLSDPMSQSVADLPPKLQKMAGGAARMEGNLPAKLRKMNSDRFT
T1 sequence (P48544 1-419 V92I): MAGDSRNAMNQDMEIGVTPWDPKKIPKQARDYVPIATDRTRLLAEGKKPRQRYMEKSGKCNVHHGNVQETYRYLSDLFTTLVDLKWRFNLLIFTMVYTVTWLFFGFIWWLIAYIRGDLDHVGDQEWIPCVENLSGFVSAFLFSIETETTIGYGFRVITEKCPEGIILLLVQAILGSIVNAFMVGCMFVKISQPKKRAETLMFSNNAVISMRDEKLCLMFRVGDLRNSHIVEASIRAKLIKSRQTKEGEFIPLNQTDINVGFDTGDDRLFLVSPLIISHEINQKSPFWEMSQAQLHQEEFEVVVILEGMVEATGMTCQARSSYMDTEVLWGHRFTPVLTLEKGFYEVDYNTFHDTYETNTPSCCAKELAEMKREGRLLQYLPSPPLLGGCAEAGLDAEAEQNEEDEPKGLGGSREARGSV
Kind of test: TEVC in Xenopus oocytes, single mutant GIRK1/4(V-I). Format: cell-based. The note with it: GIRK1/4(V-I) single mutant. From the text:
Molecular biology: For Xenopus oocyte expression, human GIRK1 and human GIRK4 cDNAs were subcloned into pGEMHE. For mammalian expression, human GIRK1 and human GIRK4 cDNAs were subcloned into pcDNA3 and pcDNA3.1/V5-His B, respectively (Invitrogen). Mouse GIRK2 cDNA was subcloned in the dual-function vector, pXoom. Point mutations were introduced using a standard Pfu-based mutagenesis technique according to the QuikChange protocol (Agilent). Mutations were verified by sequencing.
Electrophysiology of oocytes: Whole-oocyte currents were measured by conventional two-electrode voltage clamp (TEVC) with a GeneClamp 500 amplifier (Axon Instruments). Agarose cushion microelectrodes were filled with 1.5% (w/v) agarose in 3 M KCl and were used with resistances between 0.1 and 1.5 megaohms. […] Barium-sensitive basal currents from both groups, 1) Vehicle, 2) single concentration at 10 μM and 3) multiple concentrations of ML297 or GAT compounds in the presence of HK solution, were assessed at −80 mV using TEVC. Barium-sensitive currents were normalized to average basal current in the vehicle solutions. The HK solution contained the following: 96 mM KCl, 1 mM NaCl, 1 mM MgCl2, 5 mM KOH/HEPES, pH 7.4. The barium solution consisted of HK+10 mM BaCl2. Five to ten oocytes from the same batch (same frog) were recorded for each group, and the experiments were repeated in at least four batches. Data acquisition and analysis were carried out using pClamp9 (Molecular Devices) and OriginPro (Microcal) software.
To test these computational predictions, the inventors mutated each or both of the two M1 key wild-type GIRK4 subunit residues to the corresponding GIRK2 residues (GIRK4-V92I, GIRK4-T94V, GIRK4-V92I/T94V or GIRK4-dm) and vice-versa the GIRK2 residues to the corresponding GIRK4 ones (GIRK2-I97V, GIRK2-V99T, GIRK2-I97V/V99T or GIRK2-dm) (FIG. 35). […]

Compound `Cc1cc(NC(=O)Nc2ccc(Br)s2)n(-c2ccccc2)n1` [GAT1508, 1-(5-bromothiophen-2-yl)-3-(3-methyl-1-phenyl-1H-pyrazol-5-yl)urea] returned a concentration for a half-maximal effect (EC50) of 530 ± 150 nM and an EMAX of 1.29±0.03. Besides, under “read-out: EMAX, % of the control GIRK1/2”, the Emax amounted to 11%.
